Publication PMC6946680, “Modulation of brain cation-Cl^− cotransport via the SPAK kinase inhibitor ZT-1a” (Nature Communications, 2020)
“And” between values parts separate entries of the source, which are not always exact repeats. Equal values may be shown once. “Also recorded” adds a separate entry of the source.

Tests used:
KCC1 pThr927/pThr983 = assay: Choroid plexus KCC1 phospho-IP/immunoblot in rat IVH model; type: in vivo
SPAK phosphorylation = assay: Pharmacodynamic study, SPAK phosphorylation in brain of naive mice; type: in vivo, mouse; conditions: Fig S8a (brain)
Method: (§1) To define ZT-1a efficacy in naive mice in vivo, we examined phosphorylation of SPAK, NKCC1, and NCC in kidney, and phosphorylation of SPAK, NKCC1, and KCC3 in brain, after intraperitoneal (i.p.) administration of either ZT-1a (10, 30, 50, and 100 mg/kg) or Closantel (50 mg/kg as a reference). […]
(§2) 5. Pharmacodynamic (PD) study
(§3) Male C57BL/6j wild-type mice (6 weeks old, Charles River Laboratories Edinburgh UK) were treated with ZT-1a (in DMSO, Sigma) by subcutaneous injection at doses of 0, 3, 10, 30, 50 and 100 mg/kg. 50 mg/kg Closantel was administered as a comparative control. Vehicle control mice were treated with an equal volume of DMSO solution. One hour after administration, mice were sacrificed by cervical dislocation, and kidney and brain tissues were rapidly dissected and snap-frozen in liquid nitrogen. Age- […]
(§4) free conditions at the University of Dundee (UK) as described in our recent study1. Animal experiments and breeding were approved by the University of Dundee ethical committee and performed under a […]
(§5) Policy on the Care, Welfare and Treatment of Animals, and regulations set by the University of Dundee and the U.K. Home Office. […]
(§6) Brain and kidney tissues were collected at 60 min post injection, and proteins subjected to immunoblot were probed with antibodies specific for phosphorylated forms of SPAK,

NCC pThr46/50/55/60 = assay: Pharmacodynamic study, NCC phosphorylation in kidney of naive mice; type: in vivo, mouse; conditions: Fig S8b (kidney)
Method: as §1, §2, §3, §4, §5, §6

KCC3 pThr1048 = assay: Immunoblot of KCC site 2 phosphorylation (KCC3 Thr1048) in HEK-293 cells transfected with FLAG-KCC3; type: cell-based, human; conditions: for T1007/KCC2 band intensity ratio: single replicates
[1] = test system: regional cerebral blood flow; assay: Regional cerebral blood flow by laser speckle contrast imaging after tMCAO; type: in vivo, mouse; conditions: for % CBF: single mice
Method: Regional cerebral blood flow was measured using a two-dimensional laser speckle contrast analysis system (PeriCam PSI High Resolution with PIMSoft, Perimed)[65]. Isoflurane-anesthetized mice were head-fixed using stereotaxic equipment during imaging. The skin was retracted to expose the intact skull. Images were taken at 19 frames/second with averaging. Average signal intensity was taken from fixed-size (0.5-mm^2) regions of interest drawn over the parietal bone plate on the ipsi (IL)- and contralateral (CL) sides. Percent perfusion values were taken in comparison with the mean values of the pre-ischemic ipsilateral side. Five consecutive images at each time period per animal were averaged for analysis. […]
cerebral blood flow (rCBF) in ischemic mice. a and d Representative two-dimensional laser speckle contrast images of rCBF. Vehicle (DMSO), ZT-1a (A, 2.5 mg/kg), or Closantel (D, 1.25 mg/kg, i.p.) was administered i.p. at 3 hr and again at 8 hr post-reperfusion after MCAO. Pseudocolor scale bar indicates relative signal intensity. b and e No changes of rCBF were detected in the non-ischemic […]
contralateral (CL) hemispheres of vehicle-control or ZT-1a-treated (b) or Closantel-treated mice (e).
Data are mean ± SD, n = 3. c and f Similar reductions and recoveries of rCBF in the ischemic ipsilateral hemispheres (IL) were detected in the ZT-1a-treated (c) or Closantel-treated ischemic mice (f), and neither differed from vehicle-injected mice. Data are mean ± SEM, n = 3.

NKCC1 pThr203/207/212 = assay: Pharmacodynamic study, NKCC1 phosphorylation in brain of naive mice; type: in vivo, mouse; conditions: for pTh203.207.212 / NKCC1: Fig S8a (brain)
Method: as §1, §2, §3, §4, §5, §6

[2] = test system: mouse model of ischemic stroke (tMCAO); assay: Infarct volume and hemispheric swelling (TTC) 24 h after tMCAO; type: in vivo

## Cc1cc(C(C#N)c2ccc(Cl)cc2)c(Cl)cc1NC(=O)c1cc(Cl)ccc1O (stereo not drawn) [ZT-1a, 5-chloro-N-(5-chloro-4-((4-chlorophenyl)(cyano)methyl)-2-methylphenyl)-2-hydroxybenzamide]
KCC1 pThr927/pThr983; rat CPe 48 h post IVH + 1a, replicates
  KCC1 pThr983 / Actin: 0.273 and 0.737 and 0.782 and 0.302 and 0.649 and 0.721
KCC1 pThr927/pThr983; rat CPe 48 h post IVH + 1a, replicates (Fig 4 source data)
  KCC1 pThr927 / Actin: 0.027 and 0.029 and 0.034 and 0.025 and 0.037 and 0.024
KCC1 pThr927/pThr983; rat CPe, ICV ZT-1a
  reduction of post-IVH KCC1 phosphorylation at Thr927: 12 fold
  reduction of post-IVH KCC1 phosphorylation at Thr983: 3.4 fold
SPAK phosphorylation; 10 mg/kg
  pSer373 / SPAK: 0.64 and 0.68 and 0.52 and 0.61
SPAK phosphorylation; 30 mg/kg
  pSer373 / SPAK: 0.55 and 0.6 and 0.56 and 0.52
SPAK phosphorylation; 50 mg/kg
  pSer373 / SPAK: 0.56 and 0.65 and 0.61 and 0.53
SPAK phosphorylation; 100 mg/kg
  pSer373 / SPAK: 0.67 and 0.54 and 0.58 and 0.5
NCC pThr46/50/55/60; 10 mg/kg
  pTh46.50.55 / NCC: 1.78 and 1.82 and 2.81 and 2.21
  pTh60 / NCC: 1.01 and 0.99 and 1 and 0.94
NCC pThr46/50/55/60; 30 mg/kg
  pTh46.50.55 / NCC: 2.61 and 1.78 and 2.06 and 1.98
  pTh60 / NCC: 1.05 and 0.97 and 0.9 and 1.01
NCC pThr46/50/55/60; 50 mg/kg
  pTh46.50.55 / NCC: 0.4 and 0.7 and 0.69 and 0.55
NCC pThr46/50/55/60; 100 mg/kg
  pTh46.50.55 / NCC: 0.68 and 0.46 and 0.41
KCC3 pThr1048; Hypotonic low Cl, 1 uM
  T1007/KCC2 band intensity ratio: 0.223 and 0.282 and 0.213 and 0.243
KCC3 pThr1048; Hypotonic low Cl, 3 uM
  T1007/KCC2 band intensity ratio: 0.041 and 0.093 and 0.036 and 0.063
KCC3 pThr1048; Hypotonic low Cl, 10 uM
  T1007/KCC2 band intensity ratio: 0.027 and 0.033 and 0.023 and 0.03
KCC3 pThr1048; Isotonic control, 1 uM
  T1007/KCC2 band intensity ratio: 0.174 and 0.099 and 0.126 and 0.132
KCC3 pThr1048; Isotonic control, 3 uM
  T1007/KCC2 band intensity ratio: 0.134 and 0.118 and 0.103 and 0.121
KCC3 pThr1048; Isotonic control, 10 uM
  T1007/KCC2 band intensity ratio: 0.09 and 0.069 and 0.044 and 0.053
KCC3 pThr1048; ZT-1a 1 uM, Fig S4b
  KCC3 pThr1048 / KCC3: 0.35 and 0.401 and 0.302 and 0.261
[1]; Fig S10b/S10e, Pre
  % CBF: 100%
[1]; Fig S10b/S10e, Reperfusion 10 min
  % CBF: 99% and 109% and 96%
[1]; Fig S10b/S10e, Reperfusion 20 min
  % CBF: 87% and 110% and 86%
[1]; Fig S10b/S10e, Reperfusion 3 h
  % CBF: 120% and 108% and 100%
[1]; Fig S10b/S10e, Reperfusion 4 h
  % CBF: 119% and 117% and 112%
[1]; Fig S10b/S10e, Reperfusion 24 h
  % CBF: 106% and 104% and 114%
[1]; Fig S10b/S10e, mcao 10 min
  % CBF: 78% and 99% and 105%
[1]; Fig S10b/S10e, mcao 20min
  % CBF: 76% and 107% and 98%
[1]; Fig S10b/S10e, mcao 50 min
  % CBF: 104% and 96%
[1]; Fig S10c/S10f, Pre
  % CBF: 100%
[1]; Fig S10c/S10f, Reperfusion 10 min
  % CBF: 70% and 72% and 78%
[1]; Fig S10c/S10f, Reperfusion 20 min
  % CBF: 75% and 66% and 82%
[1]; Fig S10c/S10f, Reperfusion 3 h
  % CBF: 84% and 102% and 81%
[1]; Fig S10c/S10f, Reperfusion 4 h
  % CBF: 75% and 87% and 86%
[1]; Fig S10c/S10f, Reperfusion 24 h
  % CBF: 83% and 101% and 109%
[1]; Fig S10c/S10f, mcao 10 min
  % CBF: 35% and 30% and 25%
[1]; Fig S10c/S10f, mcao 20min
  % CBF: 32% and 31% and 24%
[1]; Fig S10c/S10f, mcao 50 min
  % CBF: 30% and 27% and 22%
[1]; within the 24-h post-stroke period, ischemic mice
  regional cerebral blood flow (rCBF): does not affect regional cerebral blood flow; also recorded: unaffected
NKCC1 pThr203/207/212; 60 min after administration
  NKCC1 phosphorylation (pThr203/207/212) in naive brains: neither drug had reduced
NKCC1 pThr203/207/212; 10 mg/kg
  pTh203.207.212 / NKCC1: 0.75 and 0.66 and 0.74 and 0.69
NKCC1 pThr203/207/212; 30 mg/kg
  pTh203.207.212 / NKCC1: 0.62 and 0.59 and 0.64 and 0.61
NKCC1 pThr203/207/212; 50 mg/kg
  pTh203.207.212 / NKCC1: 0.66 and 0.75 and 0.63 and 0.69
NKCC1 pThr203/207/212; 100 mg/kg
  pTh203.207.212 / NKCC1: 0.61 and 0.67 and 0.74 and 0.58
[2]; ZT-1a 2.5 or 5 mg/kg, vs vehicle control
  reduction of cerebral hemispheric swelling: 36–54%
[2]; ZT-1a from 3 h post reperfusion, 24 h post tMCAO, n = 12
  infarct volume: 43.6 ± 6.5 mm^3
[2]; ZT-1a from 3 h post reperfusion, 24 h post tMCAO, vs vehicle, n = 12
  decrease of infarct volume: ~ 44%
